Assay results published in ChEMBL document CHEMBL1134316, “Identification of dipeptidyl nitriles as potent and selective inhibitors of cathepsin B through structure-based drug design” (J Med Chem, 2001).
pIC50: −log10 of the molar value.

Columns and labels:
Cathepsin B = Cathepsin B (Homo sapiens, UniProt P07858); experiment: Inhibitory activity against recombinant human cathepsin B (cat B) expressed in baculovirus.
Cathepsin S = Cathepsin S (Homo sapiens, UniProt P25774); experiment: Inhibitory activity against recombinant human cathepsin S (cat S) expressed in baculovirus
Chain of Cathepsin S (P25774 whole entry): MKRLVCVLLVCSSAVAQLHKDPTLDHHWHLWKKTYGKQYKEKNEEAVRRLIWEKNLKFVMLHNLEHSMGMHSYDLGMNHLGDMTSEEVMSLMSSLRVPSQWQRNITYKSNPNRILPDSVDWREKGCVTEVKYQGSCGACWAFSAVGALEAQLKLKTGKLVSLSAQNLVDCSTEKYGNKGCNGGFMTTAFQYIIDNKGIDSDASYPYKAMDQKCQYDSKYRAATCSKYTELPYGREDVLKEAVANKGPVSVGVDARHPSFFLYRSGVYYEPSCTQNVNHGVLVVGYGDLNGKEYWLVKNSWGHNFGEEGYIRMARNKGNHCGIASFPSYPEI

Procathepsin L = Procathepsin L (Homo sapiens, UniProt P07711); experiment: Inhibitory activity against recombinant human cathepsin L (cat L) expressed in baculovirus
Chain of Procathepsin L (P07711 whole entry): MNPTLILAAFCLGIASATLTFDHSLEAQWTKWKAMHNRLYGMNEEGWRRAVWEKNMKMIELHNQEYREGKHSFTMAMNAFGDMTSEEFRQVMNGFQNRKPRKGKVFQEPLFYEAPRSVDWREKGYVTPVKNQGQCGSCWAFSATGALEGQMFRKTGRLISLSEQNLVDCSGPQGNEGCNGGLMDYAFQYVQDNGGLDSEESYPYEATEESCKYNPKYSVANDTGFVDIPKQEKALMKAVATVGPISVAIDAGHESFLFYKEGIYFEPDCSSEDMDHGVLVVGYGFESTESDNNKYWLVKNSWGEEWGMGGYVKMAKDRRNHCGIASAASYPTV

pIC50 (Cathepsin B) | pIC50 (Cathepsin S) | pIC50 (Procathepsin L) | Structure (SMILES)
5.72 |  |  | Cc1cccc(C[C@H](NC(=O)c2ccccc2)C(=O)NCC#N)c1
6.89 |  |  | N#CCNC(=O)[C@H](Cc1cccc(Cl)c1)NC(=O)C(c1ccccc1)c1ccccc1
8.70 |  |  | Cc1cccc(C[C@H](NC(=O)c2ccc(Cl)cc2F)C(=O)N[C@H](C#N)COCc2cccc(C(=O)O)c2)c1
< 6.00 |  |  | N#CCNC(=O)[C@H](Cc1cccc(C(=N)N)c1)NC(=O)C(c1ccccc1)c1ccccc1
7.45 |  |  | CCCCC(=O)N[C@@H](Cc1cccc(C)c1)C(=O)N[C@H](C#N)COCc1cccc(C(=O)O)c1
7.54 |  |  | Cc1cccc(C[C@H](NC(=O)C(c2ccccc2)c2ccccc2)C(=O)N[C@H](C#N)COCc2cccc(CO)c2)c1
6.92 |  |  | N#CCNC(=O)[C@H](Cc1cccc(I)c1)NC(=O)C(c1ccccc1)c1ccccc1
8.25 |  |  | Cc1cccc(C[C@H](NC(=O)C(c2ccccc2)c2ccccc2)C(=O)N[C@H](C#N)CC#Cc2cccc(C(=O)O)c2)c1
8.03 |  |  | Cc1cccc(C[C@H](NC(=O)c2ccccc2)C(=O)N[C@H](C#N)COCc2cccc(C(=O)O)c2)c1
7.77 |  |  | Cc1cccc(C[C@H](NC(=O)c2ccc(Cl)cc2F)C(=O)N[C@H](C#N)COCc2ccccc2)c1
5.52 |  |  | CCCCC(=O)N[C@@H](Cc1cccc(C)c1)C(=O)NCC#N
7.92 |  |  | Cc1cc(C)cc(C[C@H](NC(=O)C(c2ccccc2)c2ccccc2)C(=O)NCC#N)c1
7.99 |  |  | Cc1cccc(C[C@H](NC(=O)C(c2ccccc2)c2ccccc2)C(=O)N[C@H](C#N)COCc2ccccc2)c1
7.33 |  |  | COC(=O)c1cccc(COC[C@@H](C#N)NC(=O)[C@H](Cc2cccc(C)c2)NC(=O)C(c2ccccc2)c2ccccc2)c1
6.45 |  |  | Cc1cc(CN)cc(C[C@H](NC(=O)C(c2ccccc2)c2ccccc2)C(=O)NCC#N)c1
7.14 |  |  | Cc1cccc(C[C@H](NC(=O)c2ccc(Cl)cc2F)C(=O)NCC#N)c1
< 6.00 |  |  | N#CCNC(=O)[C@H](Cc1ccc(I)cc1)NC(=O)C(c1ccccc1)c1ccccc1
7.50 |  |  | Cc1cccc(C[C@H](NC(=O)c2ccc(Cl)c(Cl)c2)C(=O)NCC#N)c1
6.87 |  |  | CCc1cccc(C[C@H](NC(=O)C(c2ccccc2)c2ccccc2)C(=O)NCC#N)c1
6.86 |  |  | Cc1cccc(C[C@H](NC(=O)C(c2ccccc2)c2ccccc2)C(=O)N[C@H](C#N)CCOc2cccc(C(=O)O)c2)c1
6.30 | 7.32 | 7.51 | N#CCNC(=O)[C@H](Cc1ccccc1)NC(=O)C(c1ccccc1)c1ccccc1
6.51 |  |  | Cc1cccc(C[C@H](NC(=O)c2ccc(Cl)cc2)C(=O)NCC#N)c1
4.47 | 6.65 | 6.77 | N#CCNC(=O)[C@H](Cc1ccccc1)NC(=O)Cc1ccccc1
7.74 |  |  | Cc1cccc(C[C@H](NC(=O)C(c2ccccc2)c2ccccc2)C(=O)N[C@H](C#N)CCCc2cccc(C(=O)O)c2)c1
6.23 |  |  | Cc1cccc(C[C@H](NC(=O)c2ccc(F)cc2F)C(=O)NCC#N)c1
6.96 |  |  | Cc1cccc(C[C@H](NC(=O)c2ccc(F)cc2F)C(=O)N[C@H](C#N)CCCc2cccc(C(=O)O)c2)c1
6.19 |  |  | Cc1cncc(C[C@H](NC(=O)C(c2ccccc2)c2ccccc2)C(=O)NCC#N)c1
7.51 |  |  | Cc1cccc(C[C@H](NC(=O)C(c2ccccc2)c2ccccc2)C(=O)N[C@H](C#N)COCc2ccc(C(=O)O)cc2)c1
4.21 |  |  | N#CCNC(=O)[C@H](Cc1ccccc1)NC(=O)OCc1ccccc1
7.38 |  |  | Cc1cccc(C[C@H](NC(=O)c2ccc(F)cc2F)C(=O)N[C@H](C#N)COCc2ccccc2)c1
